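1) Cells in 96-well plates. 2) Compound, 48 h, 5 concentrations. 3) Linear interpolation between surrounding doses. 4) Unreached endpoint = highest concentration. At the TGI there is no net growth.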
How the values were obtained:
Assay in all cases: NCI anticancer screen, dose series, 48 h
NCI-H522 lung = system: NCI-H522 lung
NCI-H460 lung = system: NCI-H460 lung
NCI-H23 lung = system: NCI-H23 lung
A498 renal = system: A498 renal
MALME-3M melanoma = system: MALME-3M melanoma
HCT-15 colon = system: HCT-15 colon
HS 578T breast = system: HS 578T breast
SNB-19 CNS = system: SNB-19 CNS
SF-268 CNS = system: SF-268 CNS
CAKI-1 renal = system: CAKI-1 renal
TK-10 renal = system: TK-10 renal
OVCAR-4 ovarian = system: OVCAR-4 ovarian
MDA-N = system: MDA-N
SF-539 CNS = system: SF-539 CNS
MCF7 breast = system: MCF7 breast
EKVX NSCLC = system: EKVX NSCLC
HOP-92 NSCLC = system: HOP-92 NSCLC
HOP-62 NSCLC = system: HOP-62 NSCLC
KM20L2 colon = system: KM20L2 colon
SK-OV-3 ovarian = system: SK-OV-3 ovarian

Measured: TGI

Cc1nc2ccccc2c(=O)n1NC(=S)Nc1ccc(Cl)cc1[N+](=O)[O-]
> 100 µM: all assays above

Cc1ccc(C(=O)OCC(C)C)cc1N=NN(C)C
not listed: A498 renal
> 100 µM: all other assays above

NCCN1C(=O)C2C3c4ccccc4C(c4ccccc43)C2C1=O (stereo not given)
not listed: HS 578T breast | MDA-N | MCF7 breast
> 100 µM: all other assays above

CC(C)N1CN(C(C(=O)N[C@@H]2C(=O)N3C2SC(C)(C)C3C(=O)O)c2ccc(O)cc2)CSC1=S (stereo not given in full)
not listed: HS 578T breast | MDA-N | MCF7 breast
> 100 µM: all other assays above

NC(N)=NS(=O)(=O)c1ccc(Nc2c3ccccc3nc3c(C(=O)Nc4ccc(S(N)(=O)=O)cc4)ccc(Cl)c23)cc1
not listed: HS 578T breast | MDA-N | MCF7 breast
> 100 µM: all other assays above
